Data published in patent US20220347279A1, “VCX/Y PEPTIDES AND USE THEREOF” (BOARD OF REGENTS, THE UNIVERSITY OF TEXAS SYSTEM, priority 2019, published 2022).

Key:
Assay type in all cases: cell-based
VCX54 TCR-T cells [1] = assay: Overlap peptide library screening: peptide-pulsed T2 cells co-cultured with VCX54 TCR-T, ICS of activation markers; details: peptide pulsed to T2 cells, overnight co-culture
Procedure: Overlap peptide library screening was performed for the recognition target peptide of VCX54 TCR-T cells (FIG. 1). The 9-mer peptide with 8 amino acid overlap peptide library covering the whole length of VCX3A protein was screened for the VCX54 TCR-T cell recognized target. The peptide was pulsed to T2 cell one by one and co-cultured with VCX54 TCR-T. After overnight culturing, the activated marker of T cells such as CD137, CD69, IFN-r and TNFa were detected using intracellular cytokine staining (ICS).
(§1) Intracellular cytokine staining (ICS) assay: The T cells were incubated with target cells at 10:1 ration in the presence of brefeldin A (BFA) at 37° C. overnight. After co-culturing, the T cells were harvested and washed. The cells were stained with flow antibody anti surface marker first. After that, the cells were washed and fixed with Fix Buffer and then were permeabilized using Permeabilizing Solution (eBioscience). Permeabilized cells are then stained with intracellular cytokine flow antibody. Finally, the level of cytokine producing in the cells was analyzed using FACS.

VCX54 TCR-T cells [2] = assay: VCX54 TCR-T recognition of longer peptides comprising VCX118 (ICS); details: peptides pulsed to T2 cells, co-cultured with VCX54 TCR-T cells
Procedure: Different length of peptides with VCX118 were pulsed to T2 cells and co-cultured with VCX54 TCR-T cells. The VCX118 peptide was used as a control.
as §1

HLA-A2 = molecular target: T1, HLA-A2 (Homo sapiens, UniProt P04439, D140Y/D185E/D98H/E176V/E277Q/G131W/G231S/I119V/I121R/I166T/I218V/L300P/L318F/N151K/N90K/P208A/P217A/Q86G/Q94H/R138H/R169H/T345S); assay: VCX118 peptide HLA-A2 binding assay (HLA-A2 stability analysis on T2 cells); details: T2 cells pulsed with different concentrations of peptide
T1 construct: endogenous in cells; host or cells: T2 cells
Procedure: Different concentrations of VCX118 peptide were pulsed to T2 cells, and the HLA-A2 stability analysis was performed to detect the VCX118 peptide binding ability. VCX54, M26 and M27 peptide were used as control.

VCX54 TCR-T cells [3] = assay: VCX118 peptide cross reaction detection (peptide titration on T2 cells, ICS); details: T2 cells pulsed with high concentration of peptide
Procedure: For VCX118 peptide cross reaction detection, different concentration of VCX118 peptide were used to pulse T2 cells and then co-cultured with VCX54 TCR-T cells. […] M26 peptide was used as a negative control (FIG. 2).
as §1

VCX54 TCR-T cells [4] = assay: Peptide titration killing assay (calcein-AM quenching assay); details: peptide-pulsed T2 cells labeled with Calcein-AM, high concentrations
Excerpt: Different concentrations of VCX118 peptide were pulsed to T2 cells, labeled with Calcein-AM, and co-cultured with VCX54 TCR-T cells. The calcein-AM quenching assay was used to detect VCX54 TCR-T killing ability in response to the antigen.

Substance | induction of response of VCX54 TCR-T (CD137, CD69, IFN-r, TNFa by ICS) (VCX54 TCR-T cells [1]) | recognition by VCX54 TCR-T cells (ICS) (VCX54 TCR-T cells [2]) | binding ability to HLA-A2 (HLA-A2) | ICS response relative to VCX54 original peptide (VCX54 TCR-T cells [3]) | cross recognition by VCX54 TCR-T (ICS) (VCX54 TCR-T cells [3]) | VCX54 TCR-T killing response relative to VCX54 peptide (VCX54 TCR-T cells [4])
SEVEEPLSQ (listed as Homo sapiens) [VCX118, 9-mer VCX/Y peptide shared with all VCX/Y family members] | also be able to induce the response of VCX54 TCR-T cells | only recognized the VCX118 peptide | weak binding ability | higher than the VCX54 original peptide | cross recognized by VCX54 TCR-T | higher than the VCX54 peptide
VCX54: the target (original) 9-mer peptide of VCX3A recognized by VCX54 TCR-T cells; sequence not printed (GAATKMAAV) [reference compound] | able to induce the response of VCX54 TCR-T |  |  |  |  | 
